How the values were obtained:
murine intestinal crypts = assay: Small intestinal crypt organoid culture ex vivo, replacement of Rspo1; format: cell-based; settings: FIG. 5
Description: Small intestinal crypt organoid culture was performed using murine intestinal crypts essentially as described by Ootani et al (Nature Medicine; online publication doi:10.1038/nm.1951, 27 Apr. 2009)), and see also Sato et al (Nature Letters doi:10.1038/nature07935, 2009), both incorporated by reference herein in their entireties.

[1] = system: C57BL/6 mice exposed to whole body irradiation (RIGS); assay: Survival (Kaplan-Meier) of mice after lethal whole body irradiation; format: in vivo; settings: 10.4 Gy WBI; AdRspo1 5×10^9 particles/mice 1 hr and 48 hr post-IR, then ICG-001 150 mg/kg 72 hr post-IR; p<0.003
Description: C57BL/6 mice were treated with recombinant adenovirus expressing human Rspo1, AdRspo1 (5×10^9 particles/mice, 1 hr and 48 hr post-IR), followed by ICG-001 (150 mg/kg of body weight, 72 hr post-IR) after whole body irradiation (WBI) of 9.4-10.4 Gy. […] Expression of mRNA levels of β-Catenin target genes in crypt cells was determined by qRT-PCR.
To examine whether the purified recombinant hRspo1 could mitigate RIGS when administered along with ICG001, we treated C57BL/6 mice after 10.4 Gy of WBI with the combination of recombinant hRspo1+ICG-001. Specifically, C57BL/6 mice (n=10), exposed to 10.4 Gy single fraction WBI, were treated with hRspo1 (20 mg/kg of body weight s.c.) at 24 hr and 48 hr post-WBI. A separate cohort received sequential treatment of hRspo1 (24 hr and 48 hr post WBI) followed by ICG-001 (150 mg/kg of body weight, 72 hr post-IR).

[2] = system: asymmetric divisions in mitotic cells of the ventricular zone; assay: In vivo Par3 distribution assay of asymmetric versus symmetric divisions; design: species or system mice; settings: for number of asymmetric divisions: topical or oral administration to pregnant mice, compared to vehicle control
Excerpt: For example, Bultje et al. (Bultje R Neuron 63, 189-202, 2009) describe an assay to measure asymmetric distributions in the ventricular zone (vz) to evaluate asymmetric divisions during neurogenesis. Essentially this involves treating the animal (either adult or in utero) for a set period of time with compounds (either p.o., s.c., i.v. or topically) with compounds and then sacrificing the animal and examining the Par3 distribution (e.g., via immunohistochemistry) in mitotic cells vs. DNA distribution (e.g., using DAPI staining) Par3 distributes equally among the two daughter cells during symmetric division and unequally (essentially all in one daughter cell) during asymmetric differentiation.

[3] = system: Wnt pathway in 293T cells; assay: TopFlash luciferase β-catenin activation test; format: cell-based; settings: 24 hours in 1% FCS, alone and with Wnt3A, versus commercial Rspo1 from R&D biosystems
Description: The recombinant cDNA used was SEQ ID NO:11, encoding for recombinant human Rspo1 (SEQ ID NO:12, with StrepII tag). Activity of the purified recombinant Rspo1 was assayed using a β-catenin activation test.
Briefly, 293T cells were transfected with the reporter vector TopFlash, along with TK Renilla (transfection control) using lipofectamine 2000. After the transfection mixture was removed, cells were incubated in 0.1% FCS o/n, and then stimulated with the different inducers at the indicated concentrations in 1% FCS for 24 hours (FIG. 11).

[4] = system: mouse intestinal organoids; assay: Intestinal organoid growth/maintenance assay; format: cell-based
Description: The recombinant human Rspo1 was also tested in an intestinal organoid growth/maintenance test. Self-renewal of the small intestinal and colonic epithelium is driven by the proliferation of stem cells and their progenitors; and their maintenance and growth in culture (ex-vivo) requires the activation of the Wnt pathway. Given that it is essential, only functional Rspo1 will be able to maintain the growth of intestinal organoids and lead to their maintenance and proliferation. FIGS. 12A and 12B show, according to particular exemplary aspects, testing of functionality of recombinant human Rspo1 in an intestinal organoid growth/maintenance assay.
Organoids were generated by culturing purified small intestinal crypts in matrigel in Advanced DMEM/F12 supplemented with 500 ng/ml R-spondin 1 [commercial (FIG. 12A) or recombinant (FIG. 12B)], 100 ng/ml EGF and 100 ng/ml Noggin.

Cc1c[nH]c(-c2cnc(NCCNc3ccc(C#N)cn3)nc2-c2ccc(Cl)cc2Cl)n1 [CHIR]
replacement of Rspo1 for maintenance of small intestinal crypt organoid cultures (murine intestinal crypts): can be used to replace (for at least up to 4 days) Rspo1

O=C1[C@H](Cc2ccc(O)cc2)N2C(=O)CCN(C(=O)NCc3ccccc3)[C@H]2CN1Cc1cccc2ccccc12 [ICG-001]
mice rescued from radiation lethality [1]: 60%
number of asymmetric divisions [2]: does not affect the number of asymmetric divisions
effect on the defect in asymmetric divisions caused by IQ-1 ([2]; treatment with excess ICG-001): corrects the defect in asymmetric divisions caused by IQ-1

CC(=O)c1ccc(N=NC(C(N)=O)=C2NC(C)(C)Cc3ccccc32)cc1 [IQ-1, reference compound]
number of symmetric divisions ([2]; pregnant mice): increases the number of symmetric divisions
number of asymmetric divisions [2]: decreases the number of asymmetric divisions

[Cl-].[Li+] [LiCl]
replacement of Rspo1 for maintenance of small intestinal crypt organoid cultures (murine intestinal crypts): can be used to replace (for at least up to 4 days) Rspo1

O=c1cc(-c2ccccc2)oc2ccc3ccccc3c12 [beta napthoflavone]
replacement of Rspo1 for maintenance of small intestinal crypt organoid cultures (murine intestinal crypts): can be used to replace (for at least up to 4 days) Rspo1

B1: recombinant human Rspo1: purified recombinant human R-spondin1, SEQ ID NO:12, with StrepII tag at the c-terminal end (protein)
chain: MRLGLCVVALVLSWTHLTISSRGIKGKRQRRISAEGSQACAKGCELCSEVNGCLKCSPKLFILLERNDIRQVGVCLPSCPPGYFDARNPDMNKCIKCKIEHCEACFSHNFCTKCKEGLYLHKGRCYPACPEGSSAANGTMECSSPAQCEMSEWSPWGPCSKKQQLCGFRRGSEERTRRVLHAPVGDHAACSDTKETRRCTVRRVPCPEGQKRRKGGQGRRENANRNLARKESKEAGAGSRRRKGQQQQQQQGTVGPLTSAGPAESAWSHPQFEK
modifications: C-terminal StrepII tag; human Rspo1 protein variant with SrepII tag (ESAWSHPQFEK) at c-terminus
activation of β-catenin (TopFlash luciferase) [3]: capable of activating β-catenin by itself and synergizing with Wnt (e.g., Wnt3A) as well as, if not better, than the commercially obtained Rspo1
ability to maintain and induce sprouting (proliferation) of the organoids, versus commercial protein ([4]; 500 ng/ml R-spondin 1): identical to the commercial protein
maintenance of growth and proliferation of intestinal organoids ([4]; 500 ng/ml R-spondin 1, 100 ng/ml EGF, 100 ng/ml Noggin, matrigel): capable of maintaining the growth and proliferation of mouse intestinal organoids in culture

— US20160074400A1, “WNT MODULATORS FOR THE PROTECTION, MITIGATION AND TREATMENT OF RADIATION INJURY” (University of Southern California, priority 2012, published 2016)
